Experimental data taken from patent publication US12281149B2, “Modulators of G-protein coupled receptors” (priority 2021, dated 2025).
Read-outs that look alike come from different tables or passages of the source. *1 amine or outer side, *2 acyl side, *3 side chain or, on linkers, in order; H or OH if unused. Where a SMILES comes first, the peptide text is derived from it. Side-chain parts run from the residue outwards. [ ]: non-standard residue; d: D form. The star is where a group is joined. Isobutyryl(2-(3-CN-5-F-Ph)) = CC(C)(C(=O)*)c1cc(F)cc(C#N)c1; C20 diacid = O=C(O)CCCCCCCCCCCCCCCCCCC(=O)*; Phenylacetyl(3-Cl) = O=C(Cc1cccc(Cl)c1)*; γGlu = O=C(O)[C@H](CCC(=O)[*:2])N[*:1]; Phe(2-F) = N[C@@H](Cc1ccccc1F)C(=O)O; αMeF = C[C@](N)(Cc1ccccc1)C(=O)O; X60 = O=C(C1(c2cccnc2)CCCC1)*; AEEA = NCCOCCOCC(=O)O; Aib = CC(C)(N)C(=O)O; βAla = NCCC(=O)O

Key:
Type in all cases: cell-based
GIP receptor [1] = molecular target: T1, GIP receptor (Homo sapiens, UniProt P48546); assay: HitHunter cAMP assay, GIP receptor; details: for Emax: read-out: Emax GIP-1R
T1 sequence (P48546 22-466): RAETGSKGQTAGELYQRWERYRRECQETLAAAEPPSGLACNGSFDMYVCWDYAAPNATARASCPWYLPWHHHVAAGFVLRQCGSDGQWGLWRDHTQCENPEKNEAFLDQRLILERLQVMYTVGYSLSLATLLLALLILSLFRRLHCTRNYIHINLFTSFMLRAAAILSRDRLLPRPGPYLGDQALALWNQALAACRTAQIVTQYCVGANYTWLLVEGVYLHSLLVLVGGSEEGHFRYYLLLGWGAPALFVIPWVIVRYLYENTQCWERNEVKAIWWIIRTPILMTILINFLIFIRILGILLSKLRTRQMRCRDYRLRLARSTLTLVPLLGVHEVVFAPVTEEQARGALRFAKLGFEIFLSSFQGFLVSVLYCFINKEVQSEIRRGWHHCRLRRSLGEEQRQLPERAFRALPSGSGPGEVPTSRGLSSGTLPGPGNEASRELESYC

GLP-1 receptor [2] = molecular target: T2, GLP-1 receptor (Homo sapiens, UniProt P43220); assay: HitHunter cAMP assay, GLP-1 receptor; details: for Emax: read-out: Emax GLP-1R
GIP receptor [3] = molecular target: T1, GIP receptor; assay: PathHunter β-arrestin assay, GIP receptor; set-up: host or cells: PathHunter CHO-K1 GIPR β-Arrestin Cell Line
GLP-1 receptor [4] = molecular target: T2, GLP-1 receptor; assay: PathHunter β-arrestin assay, GLP-1 receptor; set-up: host or cells: PathHunter CHO-K1 GLP1R β-Arrestin Cell Line
[5] = CHO cells stably expressing GIP receptor, cAMP accumulation, 30 min, read-out: EC50 GIP-1R
[6] = CHO cells, cAMP, normalized to maximum signal from GIP (high) and DMSO (low)
[7] = CHO cells stably expressing human GLP-1 receptor, cAMP accumulation, 30 min, read-out: EC50 GLP-1R
[8] = CHO cells, cAMP, normalized to maximum signal from GLP-1 (high) and DMSO (low)
[9] = β-arrestin-2 recruitment, PathHunter CHO-K1 GIPR β-Arrestin Cell Line, 90 min at 37° C., normalized to GIP, read-out: GIPR β Arrestin EC50
[10] = β-arrestin-2 recruitment, PathHunter CHO-K1 GLP1R β-Arrestin Cell Line, 90 min at 37° C., normalized to GLP-1, read-out: GLP-1R β Arrestin EC50

T2 sequence (P43220 24-463): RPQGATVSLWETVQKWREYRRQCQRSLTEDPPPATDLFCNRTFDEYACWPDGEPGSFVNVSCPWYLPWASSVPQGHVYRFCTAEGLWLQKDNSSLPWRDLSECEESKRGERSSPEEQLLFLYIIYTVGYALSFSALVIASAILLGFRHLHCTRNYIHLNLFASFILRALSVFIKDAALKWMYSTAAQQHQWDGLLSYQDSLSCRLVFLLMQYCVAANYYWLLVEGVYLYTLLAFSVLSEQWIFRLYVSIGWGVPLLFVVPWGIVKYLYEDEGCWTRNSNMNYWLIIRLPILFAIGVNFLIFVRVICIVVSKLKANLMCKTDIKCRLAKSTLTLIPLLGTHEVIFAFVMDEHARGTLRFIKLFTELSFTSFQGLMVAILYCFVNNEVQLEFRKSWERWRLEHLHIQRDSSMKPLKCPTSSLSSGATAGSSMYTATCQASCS

Row | SMILES | EC50 (GIP receptor [1]) [nM] | Emax (GIP receptor [1]; CHO) [%] | EC50 (GLP-1 receptor [2]) [nM] | Emax (GLP-1 receptor [2]; CHO) [%] | EC50 (GIP receptor [3]) [nM] | EC50 (GLP-1 receptor [4]) [nM] | EC50 (GIP receptor [1]; [5]) [nM] | Emax (GIP receptor [1]; [6]) [%] | EC50 (GLP-1 receptor [2]; [7]) [nM] | Emax (GLP-1 receptor [2]; [8]) [%] | EC50 (GIP receptor [3]; [9]) [nM] | EC50 (GLP-1 receptor [4]; [10]) [nM]
1 | CC[C@H](C)[C@H](NC(=O)[C@H](CC(C)C)NC(=O)[C@H](Cc1c[nH]c2ccccc12)NC(=O)[C@H](CCC(N)=O)NC(=O)[C@@H](NC(=O)[C@H](Cc1ccccc1)NC(=O)[C@H](C)NC(=O)[C@H](CCCCNC(=O)COCCOCCNC(=O)COCCOCCNC(=O)CC[C@H](NC(=O)CCCCCCCCCCCCCCCCCCC(=O)O)C(=O)O)NC(=O)[C@H](CCC(N)=O)NC(=O)[C@H](C)NC(=O)[C@@H](NC(=O)[C@H](CCCCN)NC(=O)[C@H](CC(=O)O)NC(=O)[C@H](CC(C)C)NC(=O)C(C)(C)NC(=O)[C@@H](NC(=O)[C@H](CO)NC(=O)[C@H](Cc1ccc(O)cc1)NC(=O)[C@H](CC(=O)O)NC(=O)[C@H](CO)NC(=O)[C@@H](NC(=O)[C@H](Cc1ccccc1)NC(=O)[C@@H](NC(=O)CNC(=O)[C@H](CCC(=O)O)NC(=O)CCNC(=O)CNC(=O)Cc1cccc(Cl)c1)[C@@H](C)O)[C@@H](C)O)[C@@H](C)CC)[C@@H](C)CC)C(C)C)C(=O)N[C@@H](C)C(=O)NCC(=O)NCC(=O)N1CCC[C@H]1C(=O)N[C@@H](CO)C(=O)N[C@@H](CO)C(=O)NCC(=O)N[C@@H](C)C(=O)N1CCC[C@H]1C(=O)N1CCC[C@H]1C(=O)N1CCC[C@H]1C(=O)N[C@@H](CO)C(N)=O [Compound 230] ({Phenylacetyl(3-Cl)}-G[βAla]EGTFTSDYSI[Aib]LDKIAQK([AEEA-AEEA-γGlu-C20 diacid])AFVQWLIAGGPSSGAPPPS-NH2) | 10 to 100 | 96 | 1 to 10 | 99 | > 1000 | > 1000 |  |  |  |  |  | 
2 | CC[C@H](C)[C@H](NC(=O)[C@H](CC(C)C)NC(=O)[C@H](Cc1c[nH]c2ccccc12)NC(=O)[C@H](CCC(N)=O)NC(=O)[C@@H](NC(=O)[C@H](Cc1ccccc1)NC(=O)[C@H](C)NC(=O)[C@H](CCCCNC(=O)COCCOCCNC(=O)COCCOCCNC(=O)CC[C@H](NC(=O)CCCCCCCCCCCCCCCCCCC(=O)O)C(=O)O)NC(=O)[C@H](CCC(N)=O)NC(=O)[C@H](C)NC(=O)[C@@H](NC(=O)[C@H](CCCCN)NC(=O)[C@H](CC(=O)O)NC(=O)[C@H](CC(C)C)NC(=O)C(C)(C)NC(=O)[C@@H](NC(=O)[C@H](CO)NC(=O)[C@H](Cc1ccc(O)cc1)NC(=O)[C@H](CC(=O)O)NC(=O)[C@H](CO)NC(=O)[C@@H](NC(=O)[C@H](Cc1ccccc1F)NC(=O)[C@@H](NC(=O)CNC(=O)[C@H](CCC(=O)O)NC(=O)CCNC(=O)C1(c2cccnc2)CCCC1)[C@@H](C)O)[C@@H](C)O)[C@@H](C)CC)[C@@H](C)CC)C(C)C)C(=O)N[C@@H](C)C(=O)NCC(=O)NCC(=O)N1CCC[C@H]1C(=O)N[C@@H](CO)C(=O)N[C@@H](CO)C(=O)NCC(=O)N[C@@H](C)C(=O)N1CCC[C@H]1C(=O)N1CCC[C@H]1C(=O)N1CCC[C@H]1C(=O)N[C@@H](CO)C(N)=O [Compound 231] ({X60-βAla}-EGT[Phe(2-F)]TSDYSI[Aib]LDKIAQK([AEEA-AEEA-γGlu-C20 diacid])AFVQWLIAGGPSSGAPPPS-NH2) |  |  |  |  |  |  | 0.1 to 1 | 110 | 0.1 to 1 | 111 | > 1000 | > 1000
3 | CC[C@H](C)[C@H](NC(=O)[C@H](CC(C)C)NC(=O)[C@H](Cc1c[nH]c2ccccc12)NC(=O)[C@H](CCC(N)=O)NC(=O)[C@@H](NC(=O)[C@H](Cc1ccccc1)NC(=O)[C@H](C)NC(=O)[C@H](CCCCNC(=O)COCCOCCNC(=O)COCCOCCNC(=O)CC[C@H](NC(=O)CCCCCCCCCCCCCCCCCCC(=O)O)C(=O)O)NC(=O)[C@H](CCC(N)=O)NC(=O)[C@H](C)NC(=O)[C@@H](NC(=O)[C@H](CCCCN)NC(=O)[C@H](CC(=O)O)NC(=O)[C@H](CC(C)C)NC(=O)C(C)(C)NC(=O)[C@@H](NC(=O)[C@H](CO)NC(=O)[C@H](Cc1ccc(O)cc1)NC(=O)[C@H](CC(=O)O)NC(=O)[C@H](CO)NC(=O)[C@@H](NC(=O)[C@H](Cc1ccccc1F)NC(=O)[C@@H](NC(=O)CNC(=O)[C@H](CCC(=O)O)NC(=O)CCNC(=O)C(C)(C)c1cc(F)cc(C#N)c1)[C@@H](C)O)[C@@H](C)O)[C@@H](C)CC)[C@@H](C)CC)C(C)C)C(=O)N[C@@H](C)C(=O)NCC(=O)NCC(=O)N1CCC[C@H]1C(=O)N[C@@H](CO)C(=O)N[C@@H](CO)C(=O)NCC(=O)N[C@@H](C)C(=O)N1CCC[C@H]1C(=O)N1CCC[C@H]1C(=O)N1CCC[C@H]1C(=O)N[C@@H](CO)C(N)=O [Compound 233] ({Isobutyryl(2-(3-CN-5-F-Ph))-βAla}-EGT[Phe(2-F)]TSDYSI[Aib]LDKIAQK([AEEA-AEEA-γGlu-C20 diacid])AFVQWLIAGGPSSGAPPPS-NH2) |  |  |  |  |  |  | 0.1 to 1 | 109 | 0.1 to 1 | 121 | < 1000 | > 1000
4 | CC[C@H](C)[C@H](NC(=O)[C@H](CC(C)C)NC(=O)[C@H](Cc1c[nH]c2ccccc12)NC(=O)[C@H](CCC(N)=O)NC(=O)[C@@H](NC(=O)[C@H](Cc1ccccc1)NC(=O)[C@H](C)NC(=O)[C@H](CCCCNC(=O)COCCOCCNC(=O)COCCOCCNC(=O)CC[C@H](NC(=O)CCCCCCCCCCCCCCCCCCC(=O)O)C(=O)O)NC(=O)[C@H](CCC(N)=O)NC(=O)[C@H](C)NC(=O)[C@@H](NC(=O)[C@H](CCCCN)NC(=O)[C@H](CC(=O)O)NC(=O)[C@H](CC(C)C)NC(=O)C(C)(C)NC(=O)[C@@H](NC(=O)[C@H](CO)NC(=O)[C@H](Cc1ccc(O)cc1)NC(=O)[C@H](CC(=O)O)NC(=O)[C@H](CO)NC(=O)[C@@H](NC(=O)[C@](C)(Cc1ccccc1)NC(=O)[C@@H](NC(=O)CNC(=O)[C@H](CCC(=O)O)NC(=O)CCNC(=O)C1(c2cccnc2)CCCC1)[C@@H](C)O)[C@@H](C)O)[C@@H](C)CC)[C@@H](C)CC)C(C)C)C(=O)N[C@@H](C)C(=O)NCC(=O)NCC(=O)N1CCC[C@H]1C(=O)N[C@@H](CO)C(=O)N[C@@H](CO)C(=O)NCC(=O)N[C@@H](C)C(=O)N1CCC[C@H]1C(=O)N1CCC[C@H]1C(=O)N1CCC[C@H]1C(=O)N[C@@H](CO)C(N)=O [Compound 234] ({X60-βAla}-EGT[αMeF]TSDYSI[Aib]LDKIAQK([AEEA-AEEA-γGlu-C20 diacid])AFVQWLIAGGPSSGAPPPS-NH2) |  |  |  |  |  |  | 0.1 to 1 | 112 | 0.1 to 1 | 105 | < 1000 | > 1000
5 | CC[C@H](C)[C@H](NC(=O)[C@H](CC(C)C)NC(=O)[C@H](Cc1c[nH]c2ccccc12)NC(=O)[C@H](CCC(N)=O)NC(=O)[C@@H](NC(=O)[C@H](Cc1ccccc1)NC(=O)[C@H](C)NC(=O)[C@H](CCCCNC(=O)COCCOCCNC(=O)COCCOCCNC(=O)CC[C@H](NC(=O)CCCCCCCCCCCCCCCCCCC(=O)O)C(=O)O)NC(=O)[C@H](CCC(N)=O)NC(=O)[C@H](C)NC(=O)[C@@H](NC(=O)[C@H](CCCCN)NC(=O)[C@H](CC(=O)O)NC(=O)[C@H](CC(C)C)NC(=O)C(C)(C)NC(=O)[C@@H](NC(=O)[C@H](CO)NC(=O)[C@H](Cc1ccc(O)cc1)NC(=O)[C@H](CC(=O)O)NC(=O)[C@H](CO)NC(=O)[C@@H](NC(=O)[C@](C)(Cc1ccccc1)NC(=O)[C@@H](NC(=O)CNC(=O)[C@H](CCC(=O)O)NC(=O)CCNC(=O)C(C)(C)c1cc(F)cc(C#N)c1)[C@@H](C)O)[C@@H](C)O)[C@@H](C)CC)[C@@H](C)CC)C(C)C)C(=O)N[C@@H](C)C(=O)NCC(=O)NCC(=O)N1CCC[C@H]1C(=O)N[C@@H](CO)C(=O)N[C@@H](CO)C(=O)NCC(=O)N[C@@H](C)C(=O)N1CCC[C@H]1C(=O)N1CCC[C@H]1C(=O)N1CCC[C@H]1C(=O)N[C@@H](CO)C(N)=O [Compound 235] ({Isobutyryl(2-(3-CN-5-F-Ph))-βAla}-EGT[αMeF]TSDYSI[Aib]LDKIAQK([AEEA-AEEA-γGlu-C20 diacid])AFVQWLIAGGPSSGAPPPS-NH2) |  |  |  |  |  |  | 0.1 to 1 | 108 | 0.1 to 1 | 122 | < 1000 | > 1000
